Test results reported in patent publication US10092575B2, “Substituted thiophene- and furan-fused azolopyrimidine-5-(6H)-one compounds” (DART NEUROSCIENCE (CAYMAN) LTD., priority 2012, dated 2018).

The molecules below were run against human PDE1b enzyme (Homo sapiens (Human), UniProt Q01064) (assay: PDE1b inhibitory assay (IMAP TR-FRET)). Details: not given.

Compound | EC50
COc1ccc(Cn2c(=O)n3ncnc3c3cc(CN4CCN(C)CC4)sc32)cc1 [Example 32, 6-(4-Methoxybenzyl)-8-((4-methylpiperazin-1-yl)methyl)thieno[3,2-e][1,2,4]triazolo[1,5-c]pyrimidin-5(6H)-one] | 0.1 to 1 µM
CC(C)CCc1cc2c(s1)n(Cc1cccc(Cl)c1)c(=O)n1ncnc21 [Example 20, 6-(3-Chlorobenzyl)-8-isopentylthieno[3,2-e][1,2,4]triazolo[1,5-c]pyrimidin-5(6H)-one] | 1 to 10 µM
COc1ccc(Cn2c(=O)n3ncnc3c3c4c(sc32)N(Cc2cccc(Cl)c2)CCC4)cc1OC [Example 155, 8-(3-Chlorobenzyl)-6-(3,4-dimethoxybenzyl)-8,9,10,11-tetrahydropyrido[3′,2′:4,5]thieno[3,2-e][1,2,4]triazolo[1,5-c]pyrimidin-5(6H)-one] | 1 to 10 µM
O=c1n(Cc2ccccc2)c2sc3c(c2c2ncnn12)CCCC3 [Example 84, 6-Benzyl-8,9,10,11-tetrahydrobenzo[4,5]thieno[3,2-e][1,2,4]triazolo[1,5-c]pyrimidin-5(6H)-one] | 0.1 to 1 µM
COc1ccc(Cn2c(=O)n3ncnc3c3cc(-c4c(C)noc4C)sc32)cc1 [Example 42, 8-(3,5-Dimethylisoxazol-4-yl)-6-(4-methoxybenzyl)thieno[3,2-e][1,2,4]triazolo[1,5-c]pyrimidin-5(6H)-one] | 0.1 to 1 µM
COc1ccc(Cn2c(=O)n3ncnc3c3c4c(sc32)CN(C(=O)C2CCNC2)CC4)cc1 (stereo not drawn) [Example 181, 6-(4-Methoxybenzyl)-9-(pyrrolidine-3-carbonyl)-8,9,10,11-tetrahydropyrido[4′,3′:4,5]thieno[3,2-e][1,2,4]triazolo[1,5-c]pyrimidin-5(6H)-one] | 0.1 to 1 µM
CC(C)CCc1cc2c(s1)n(Cc1ccccc1Cl)c(=O)n1ncnc21 [Example 19, 6-(2-Chlorobenzyl)-8-isopentylthieno[3,2-e][1,2,4]triazolo[1,5-c]pyrimidin-5(6H)-one] | 1 to 10 µM
COc1ccc(Cn2c(=O)n3ncnc3c3c4c(sc32)COCC4)cc1F [Example 95, 6-(3-Fluoro-4-methoxybenzyl)-6,8,10,11-tetrahydro-5H-pyrano[4′,3′:4,5]thieno[3,2-e][1,2,4]triazolo[1,5-c]pyrimidin-5-one] | 0.1 to 1 µM
COc1ccc(Cn2c(=O)n3ncnc3c3c(CN(C(C)C)C(C)C)csc32)cc1 [Example 215, 9-((Diisopropylamino)methyl)-6-(4-methoxybenzyl)thieno[3,2-e][1,2,4]triazolo[1,5-c]pyrimidin-5(6H)-one] | 0.1 to 1 µM
COc1ccc(Cn2c(=O)n3ncnc3c3c4c(sc32)N(Cc2ccc(Cl)cc2)CCC4)cc1 [Example 152, 8-(4-Chlorobenzyl)-6-(4-methoxybenzyl)-8,9,10,11-tetrahydropyrido[3′,2′:4,5]thieno[3,2-e][1,2,4]triazolo[1,5-c]pyrimidin-5 (6H)-one] | 0.1 to 1 µM

Same assay, conditions: negative log of half-maximal molar inhibitory concentration; 200 nM FAM-cAMP; reported as ranges

Compound | PDE1b (pEC50)
COc1ccc(Cn2c(=O)n3ncnc3c3c(C)c(CNCc4cccnc4)sc32)cc1 [Example 52, 6-(4-Methoxybenzyl)-9-methyl-8-(((pyridin-3-ylmethyl)amino)methyl)thieno[3,2-e][1,2,4]triazolo[1,5-c]pyrimidin-5(6H)-one] | >7
COc1ccc(Cn2c(=O)n3ncnc3c3c4c(sc32)CNCCC4)cc1 [Example 217, 6-(4-Methoxybenzyl)-6,8,9,10,11,12-hexahydro-5H-[1,2,4]triazolo[1″,5″:1′,6′]pyrimido[5′,4′:4,5]thieno[2,3-c]azepin-5-one] | >7
CCC1CN(Cc2sc3c(c2C)c2ncnn2c(=O)n3Cc2ccc(OC)cc2)CCO1 (stereo not drawn) [Example 68, 8-((2-Ethylmorpholino)methyl)-6-(4-methoxybenzyl)-9-methylthieno[3,2-e][1,2,4]triazolo[1,5-c]pyrimidin-5(6H)-one] | >7
COc1ccc(Cn2c(=O)n3ncnc3c3c4c(sc32)CN(CC2CCOC2)CCC4)cc1 (stereo not drawn) [Example 143, 6-(4-Methoxybenzyl)-9-((tetrahydrofuran-3-yl)methyl)-6,8,9,10,11,12-hexahydro-5H-[1,2,4]triazolo[1″,5″:1%6′]pyrimido[5′,4′:4,5]thieno[2,3-c]azepin-5-one] | >7
COc1ccc(Cn2c(=O)n3ncnc3c3cc(CN4CCN(c5cccc(F)c5)CC4)sc32)cc1 [Example 187, 8-((4-(3-Fluorophenyl)piperazin-1-yl)methyl)-6-(4-methoxybenzyl)thieno[3,2-e][1,2,4]triazolo[1,5-c]pyrimidin-5(6H)-one] | >7
COc1ccc(Cn2c(=O)n3ncnc3c3c(CN(C)CC4CCOCC4)csc32)cc1 [Example 199, 6-(4-Methoxybenzyl)-9-((methyl((tetrahydro-2H-pyran-4-yl)methyl)amino)methyl)thieno[3,2-e][1,2,4]triazolo[1,5-c]pyrimidin-5(6H)-one] | >7
COc1ccc(Cn2c(=O)n3ncnc3c3c(C)c(CN4CCOC(C)(C)C4)sc32)cc1 [Example 69, 8-((2,2-Dimethylmorpholino)methyl)-6-(4-methoxybenzyl)-9-methylthieno[3,2-e][1,2,4]triazolo[1,5-c]pyrimidin-5(6H)-one] | >7
COc1ccc(Cn2c(=O)n3ncnc3c3c4c(sc32)N(C(=O)C2CC2)CCC4)cc1 [Example 174, 8-(Cyclopropanecarbonyl)-6-(4-methoxybenzyl)-8,9,10,11-tetrahydropyrido[3′,2′:4,5]thieno[3,2-e][1,2,4]triazolo[1,5-c]pyrimidin-5(6H)-one] | >7
CCN1CCN(Cc2sc3c(c2C)c2ncnn2c(=O)n3Cc2ccc(OC)cc2)CC1=O [Example 66, 8-((4-Ethyl-3-oxopiperazin-1-yl)methyl)-6-(4-methoxybenzyl)-9-methylthieno[3,2-e][1,2,4]triazolo[1,5-c]pyrimidin-5(6H)-one] | >7
COc1ccc(Cn2c(=O)n3ncnc3c3c4c(sc32)CN(Cc2nnc(C)s2)CC4)cc1 [Example 108, 6-(4-Methoxybenzyl)-9-((5-methyl-1,3,4-thiadiazol-2-yl)methyl)-8,9,10,11-tetrahydropyrido[4′,3′:4,5]thieno[3,2-e][1,2,4]triazolo[1,5-c]pyrimidin-5(6H)-one] | >7
COc1ccc(Cn2c(=O)n3ncnc3c3c4c(sc32)CN(CC2(C)COC2)CC4)cc1 [Example 111, 6-(4-Methoxybenzyl)-9-((3-methyloxetan-3-yl)methyl)-8,9,10,11-tetrahydropyrido[4′,3′:4,5]thieno[3,2-e][1,2,4]triazolo[1,5-c]pyrimidin-5 (6H)-one] | >7
COc1ccc(Cn2c(=O)n3ncnc3c3c(C)c(CN4CCN5CCC[C@H]5C4)sc32)cc1 [Example 75, (S)-8-((Hexahydropyrrolo[1,2-a]pyrazin-2(1H)-yl)methyl)-6-(4-methoxybenzyl)-9-methylthieno[3,2-e][1,2,4]triazolo[1,5-c]pyrimidin-5(6H)-one] | >7
COc1ccc(Cn2c(=O)n3ncnc3c3c4c(sc32)CN(CC2CCC(=O)O2)CC4)cc1 (stereo not drawn) [Example 126] | >7
COc1ccc(Cn2c(=O)n3ncnc3c3c(C)c(CN4CCOCC4)sc32)cc1 [Example 44, 6-(4-Methoxybenzyl)-9-methyl-8-(morpholinomethyl)thieno[3,2-e][1,2,4]triazolo[1,5-c]pyrimidin-5(6H)-one] | >7
COc1ccc(Cn2c(=O)n3ncnc3c3c4c(sc32)CN(CC2COCCO2)CC4)cc1 (stereo not drawn) [Example 125, 9-((1,4-Dioxan-2-yl)methyl)-6-(4-methoxybenzyl)-8,9,10,11-tetrahydropyrido[4′,3′:4,5]thieno[3,2-e][1,2,4]triazolo[1,5-c]pyrimidin-5(6H)-one] | >7
COc1ccc(Cn2c(=O)n3ncnc3c3cc(CN4C[C@@H](C)O[C@@H](C)C4)sc32)cc1 [Example 33, 8-(((2S,6R)-2,6-Dimethylmorpholino)methyl)-6-(4-methoxybenzyl)thieno[3,2-e][1,2,4]triazolo[1,5-c]pyrimidin-5(6H)-one] | >7
COc1ccc(Cn2c(=O)n3ncnc3c3c(C)c(CN4CCN(C(C)=O)CC4)sc32)cc1 [Example 51, 8-((4-Acetylpiperazin-1-yl)methyl)-6-(4-methoxybenzyl)-9-methylthieno[3,2-e][1,2,4]triazolo[1,5-c]pyrimidin-5(6H)-one] | >7
COc1ccc(Cn2c(=O)n3ncnc3c3c4c(sc32)N(CC2CCOC2)CCC4)cc1 (stereo not drawn) [Example 150, 6-(4-Methoxybenzyl)-8-((tetrahydrofuran-3-yl)methyl)-8,9,10,11-tetrahydropyrido[3′,2′:4,5]thieno[3,2-e][1,2,4]triazolo[1,5-c]pyrimidin-5(6H)-one] | >7
COc1ccc(Cn2c(=O)n3ncnc3c3c4c(sc32)CN(CC2CCOC2)CC4)cc1 (stereo not drawn) [Example 113, 6-(4-Methoxybenzyl)-9-((tetrahydrofuran-3-yl)methyl)-8,9,10,11-tetrahydropyrido[4′,3′:4,5]thieno[3,2-e][1,2,4]triazolo[1,5-c]pyrimidin-5(6H)-one] | >7
COc1ccc(Cn2c(=O)n3ncnc3c3c4c(sc32)N(C(=O)C2CCOC2)CCC4)cc1 (stereo not drawn) [Example 175, 6-(4-Methoxybenzyl)-8-(tetrahydrofuran-3-carbonyl)-8,9,10,11-tetrahydropyrido[3′,2′:4,5]thieno[3,2-e][1,2,4]triazolo[1,5-c]pyrimidin-5(6H)-one] | >7
COc1ccc(Cn2c(=O)n3ncnc3c3c4c(sc32)CN(CCCS(C)(=O)=O)CC4)cc1 [Example 118, 6-(4-Methoxybenzyl)-9-(3-(methylsulfonyl)propyl)-8,9,10,11-tetrahydropyrido[4′,3′:4,5]thieno[3,2-e][1,2,4]triazolo[1,5-c]pyrimidin-5 (6H)-one] | >7
COc1ccc(Cn2c(=O)n3ncnc3c3c(C)c(CN4CCNC(=O)C4)sc32)cc1 [Example 53, 6-(4-Methoxybenzyl)-9-methyl-8-((3-oxopiperazin-1-yl)methyl)thieno[3,2-e][1,2,4]triazolo[1,5-c]pyrimidin-5(6H)-one] | >7
COc1ccc(Cn2c(=O)n3ncnc3c3c4c(sc32)CN(Cc2scnc2C)CC4)cc1 [Example 123] | >7
